{"source": "patent US20240238380A1", "about": "“COMPOSITION FOR COMBINATION THERAPY COMPRISING GROWTH DIFFERENTIATION FACTOR-15 VARIANT AND GLUCAGON-LIKE PEPTIDE-1 RECEPTOR AGONIST” (YUHAN CORPORATION, priority 2021, published 2024)", "assay_type_in_all_cases": "in vivo", "key": {"[1]": {"assay": "Anti-obesity effect by repeated administration alone and in combination with semaglutide in ob/ob mice (Example 5)", "source_text": "The ob/ob mouse has a mutation in the leptin gene resulting in leptin deficiency, and are characterized by hyperglycemia, insulin resistance, overeating, and obesity. 5-week-old male ob/ob mice (Jackson Laboratory, USA) were purchased from Raon Bio (Animal Inc., Republic of Korea). The ob/ob mice were acclimatized with normal food (Teklad Certified Irradiated Global 18% Protein Rodent Diet, 2918C, Harlan Co., USA) for 4 weeks, and drug treatment was started at 9 weeks of age. On the day before drug treatment, the mice were grouped based on the body weight of individual mice and random blood glucose levels determined by sampling at the tail vein (n=6 per group). Thereafter, 1 and 10 nmol/kg of FM9-6+Fc_hole alone, 10 and 30 nmol/kg of semaglutide alone, and FM9-6+Fc_hole and semaglutide at doses of 1+10 and 10+10 nmol/kg in combination were subcutaneously administered thereto a total of 10 times every 3 days (Q3D), and body weight and food intake were measured every day or every 3 days during the experimental period (29 days). Here, DPBS (Dulbecco's phosphate-buffered saline, Gibco, USA) was administered for vehicle treatment."}, "[2]": {"assay": "Inhibitory effect on gastric emptying (acetaminophen exposure) in normal rats (Example 8)", "conditions": "for AUClast of acetaminophen (μg · min/mL), 3 hr / AUClast of acetaminophen (μg · min/mL), 24 hr / AUClast of acetaminophen (μg · min/mL), 72 hr: rats; for AUClast of acetaminophen (μg · min/mL), 3 hr: acetaminophen 3 hr after dose; for AUClast of acetaminophen (μg · min/mL), 24 hr: acetaminophen 24 hr after dose; for AUClast of acetaminophen (μg · min/mL), 72 hr: acetaminophen 72 hr after dose", "procedure": "Therefore, this example was performed to investigate the inhibitory effect on gastric emptying when the novel long-acting GDF15 fusion protein was administered at the doses equal to the effective dose, higher than the maximum effective dose, or in combination with a GLP-1 receptor agonist to rats. 6-week-old male SD rats (Orient Bio, Republic of Korea) were purchased from Hallym Lab. Animal Inc., Republic of Korea. Animals were acclimated for 7 days. On the day of drug administration, the rats were grouped based on the average body weight of individual rats (n=5 per group) and fasted for at least 6 hours before oral administration of acetaminophen. Then, 0.1, 1, and 10 nmol/kg of FM9-6+Fc_hole, 10 nmol/kg of semaglutide (long-acting GLP-1 derivative, SEQ ID NO: 114), and combination of FM9-6+Fc_hole and semaglutide (1+10 nmol/kg) were subcutaneously administered. The semaglutide was Ozempic® (semaglutide) from Novo NorDisk. As a negative control drug, D-PBS (normal vehicle) was subcutaneously administered, and as a positive control drug, 30 mg/kg of loperamide was orally administered 45 minutes before acetaminophen administration. On 3, 24 and 72 hours after a single dose of the test articles, acetaminophen was orally administered at 100 mg/kg to rats, and blood samples were collected before and at 30, 60, 90, 120 and 150 minutes after acetaminophen administration. The plasma concentration of acetaminophen was analyzed, and the pharmacokinetic profiles and the systemic exposures of acetaminophen were compared to evaluate the inhibitory effect on gastric emptying among the groups."}, "[3]": {"assay": "Anti-obesity and metabolic parameter effects alone and in combination with large dose of semaglutide in ob/ob mice (Example 6)", "conditions": "1 nmol/kg s.c. Q3D", "source_text": "5-week-old male ob/ob mice (Jackson Laboratory, USA) were purchased from Raon Bio (Animal Inc., Republic of Korea). The ob/ob mice were acclimatized with normal chow or normal chow diet (Teklad Certified Irradiated Global 18% Protein Rodent Diet, 2918C, Harlan Co., USA) for 5 weeks, and drug treatment was started at 10 weeks of age. On the day before drug treatment, the mice were grouped based on the body weight of individual mice and random blood glucose levels determined by sampling at the tail vein (n=6 per group). Thereafter, 1 nmol/kg of FM9-6+Fc_hole alone, 30 nmol/kg of semaglutide alone, and FM9-6+Fc_hole and semaglutide in combination (1+30 nmol/kg) were subcutaneously administered thereto a total of 9 times every 3 days (Q3D), and body weight, food intake, and non-fasting blood glucose were measured every day or every 3 days during the experimental period (24 days). Here, DPBS (Dulbecco's phosphate-buffered saline, Gibco, USA) was administered for vehicle treatment."}}, "note": "Marks after values point to notes of the source that are not given here."}
{"substance": "FM9-6 + Fc_hole: long-acting GDF15 fusion protein (dimer): GDF15 ΔN2, S64R, IgG1 Fc_knob/Fc_hole, linker GS(EAAAK)5; SEQ ID NOs: 103 and 47", "values": [{"measurement": "Change in body weight (%) vs. ob/ob control, Maximum efficacy", "setting": "[1]; 1 nmol/kg s.c. Q3D", "result": "−21.49 (On Day 29)**** %"}, {"measurement": "Change in body weight (%) vs. ob/ob control, Efficacy on Day 29", "setting": "[1]; 1 nmol/kg s.c. Q3D", "result": "−21.49**** %"}, {"measurement": "Change in body weight (%) vs. ob/ob control, Maximum efficacy", "setting": "[1]; 10 nmol/kg s.c. Q3D", "result": "−24.87 (On Day 29)**** %"}, {"measurement": "Change in body weight (%) vs. ob/ob control, Efficacy on Day 29", "setting": "[1]; 10 nmol/kg s.c. Q3D", "result": "−24.87 **** %"}, {"measurement": "AUClast of acetaminophen (μg · min/mL), 3 hr", "setting": "[2]; 0.1 nmol/kg s.c. single dose", "result": 1873.02, "unit": "µg·min/mL"}, {"measurement": "AUClast of acetaminophen (μg · min/mL), 24 hr", "setting": "[2]; 0.1 nmol/kg s.c. single dose", "result": 2652.42, "unit": "µg·min/mL"}, {"measurement": "AUClast of acetaminophen (μg · min/mL), 72 hr", "setting": "[2]; 0.1 nmol/kg s.c. single dose", "result": 3054.78, "unit": "µg·min/mL"}, {"measurement": "AUClast of acetaminophen (μg · min/mL), 3 hr", "setting": "[2]; 1 nmol/kg s.c. single dose", "result": 2615.40, "unit": "µg·min/mL"}, {"measurement": "AUClast of acetaminophen (μg · min/mL), 24 hr", "setting": "[2]; 1 nmol/kg s.c. single dose", "result": 1878.30, "unit": "µg·min/mL"}, {"measurement": "AUClast of acetaminophen (μg · min/mL), 72 hr", "setting": "[2]; 1 nmol/kg s.c. single dose", "result": 3526.86, "unit": "µg·min/mL"}, {"measurement": "AUClast of acetaminophen (μg · min/mL), 3 hr", "setting": "[2]; 10 nmol/kg s.c. single dose", "result": 1497.84, "unit": "µg·min/mL"}, {"measurement": "AUClast of acetaminophen (μg · min/mL), 24 hr", "setting": "[2]; 10 nmol/kg s.c. single dose", "result": 2385.36, "unit": "µg·min/mL"}, {"measurement": "AUClast of acetaminophen (μg · min/mL), 72 hr", "setting": "[2]; 10 nmol/kg s.c. single dose", "result": 3100.59, "unit": "µg·min/mL"}, {"measurement": "gastric emptying (in words)", "setting": "[2]; rats, 0.1, 1, and 10 nmol/kg, 3, 24, and 72 hours after administration", "result": "did not affect gastric emptying"}, {"measurement": "Change in body weight (%) vs. ob/ob control, Efficacy on Day 24", "setting": "[3]", "result": "−23.37**** %"}, {"measurement": "Mean of random blood glucose levels (mg/dL), Efficacy on Day 24", "setting": "[3]", "result": "116.2**** mg/dL"}]}
